The values that follow come from ChEMBL document CHEMBL5724558, “Image-based profiling of drug vulnerabilities in CRC organoids” (2024).

Assay type in all cases: functional, Homo sapiens
Common to all, as to parameters: dose or concentration left out as unconfirmed

The test system of assay [1] is Colon cancer organoid. The assay can be described thus: Image-based profiling of donated chemical probes and chemogenomic kinase set in O09 CRC organoid. Image analysis is performed on the sum area metric, and the data were normalized to the DMSO control. After imaging the organoid viability is measured using the OneGloEX Luciferase Assay System. The normalized viability data and sum area are reported.

The test system of assay [2] is Colon cancer organoid. The assay can be described thus: Image-based profiling of donated chemical probes and chemogenomic kinase set in O21 CRC organoid. Image analysis is performed on the sum area metric, and the data were normalized to the DMSO control. After imaging the organoid viability is measured using the OneGloEX Luciferase Assay System. The normalized viability data and sum area are reported.

The subject of assay [3] is Colon cancer organoid. The assay can be described thus: Image-based profiling of donated chemical probes and chemogenomic kinase set in O06 CRC organoid. Image analysis is performed on the sum area metric, and the data were normalized to the DMSO control. After imaging the organoid viability is measured using the OneGloEX Luciferase Assay System. The normalized viability data and sum area are reported.

Where “and” joins values, the source holds several entries; their conditions need not be identical. Identical values can stand only once.

Turning to `CCNC(=O)c1cc2c(-c3cc(C(C)(C)O)ccc3Oc3c(C)cc(F)cc3C)cn(C)c(=O)c2[nH]1` [ABBV-744], the “Cell Viability” value is 57.6147% and 40.8037% in assay [1] (Replication number 1); 73.5027% and 48.4637% in assay [1] (Replication number 2); 105.916% and 106.401% in assay [2] (Replication number 1); 102.084% and 111.158% in assay [2] (Replication number 2); 111.05% and 99.302% in assay [3] (Replication number 1); 81.1787% and 70.2602% in assay [3] (Replication number 2).
With `Cn1c(C2(NC(=O)c3ccc4c(C5CCCC5)c(-c5ncc(Br)cn5)n(C)c4c3)CCC2)nc2ccc(/C=C/C(=O)O)cc21` [DELEOBUVIR], the “Cell Viability” value in assay [1] (Replication number 1) was 177.935% and 120.27%; in assay [1] (Replication number 2), 86.2792% and 92.0585%; in assay [2] (Replication number 1) it was 112.195% and 113.344%; in assay [2] (Replication number 2), 113.774% and 112.777%; in assay [3] (Replication number 1), 72.8568% and 101.611%; in assay [3] (Replication number 2), 116.691% and 122.099%.
Take `CNCc1ccccc1-c1csc([C@@H](C)Nc2nc(C)nc3cc(OC)c(OC)cc23)c1` [BAY-293]: the “Cell Viability” value is 109.186% and 103.451% in assay [1] (Replication number 1); 63.3306% and 79.153% in assay [1] (Replication number 2); 45.2566% and 84.9935% in assay [2] (Replication number 1); 50.5698% and 76.0204% in assay [2] (Replication number 2); 9.059% and 19.7098% in assay [3] (Replication number 2).
With `Cc1ccc(NC(=O)Nc2cc(C(F)(F)F)ccc2F)cc1Nc1ccc2c(c1)NC(=O)/C2=C\c1ccc[nH]1`, the “Cell Viability” value was 128.92% and 93.5433% in assay [1] (Replication number 1); 146.444% and 106.907% in assay [1] (Replication number 2); 103.098% and 128.078% in assay [2] (Replication number 1); 94.098% and 129.212% in assay [2] (Replication number 2); 171.109% and 157.262% in assay [3] (Replication number 1); 144.83% and 120.438% in assay [3] (Replication number 2).
Take `CNCCN1CCC(OCc2ccccc2)CC1`: the “Cell Viability” value in assay [1] (Replication number 1) is 67.0161% and 91.8083%; in assay [1] (Replication number 2), 91.8334% and 102.344%; in assay [2] (Replication number 1) it was 118.771% and 101.11%; in assay [2] (Replication number 2), 99.3774% and 100.418%; in assay [3] (Replication number 1) it was 119.99% and 102.443%; in assay [3] (Replication number 2), 115.41% and 100.611%.
Turning to `Cc1nc(-c2cn3c(n2)-c2ccc(-c4cnn(C(C)(C)C(N)=O)c4)cc2OCC3)n(C(C)C)n1` [TASELISIB], the “Cell Viability” value is 40.2908% and 23.1884% in assay [1] (Replication number 1); 43.7188% and 27.2651% in assay [1] (Replication number 2); 74.483% and 67.4564% in assay [2] (Replication number 1); 68.3353% and 63.3321% in assay [2] (Replication number 2); 24.4584% and 46.9606% in assay [3] (Replication number 1); 18.3941% and 28.1748% in assay [3] (Replication number 2).
In the case of `O=C(Nc1cnc(Oc2ccc(F)cc2)nc1)N1CCc2ncccc2[C@@H]1c1ccc(F)cc1` [BAY-899], the “Cell Viability” value is 90.6617% and 101.288% in assay [1] (Replication number 1); 105.766% and 101.705% in assay [1] (Replication number 2); 121.151% and 99.8545% in assay [2] (Replication number 1); 98.3369% and 80.5574% in assay [2] (Replication number 2); 95.5159% and 118.785% in assay [3] (Replication number 1); 100.58% and 108.361% in assay [3] (Replication number 2).
With `COc1ccc(COc2ccc(Cc3cnc(N)nc3N)cc2OC)cc1` [GW632580X], the “Cell Viability” value was 97.2833% and 91.2576% in assay [1] (Replication number 1); 140.582% and 107.98% in assay [1] (Replication number 2); 84.7531% and 94.7735% in assay [2] (Replication number 1); 111.284% and 94.9982% in assay [2] (Replication number 2); 58.2611% and 105.272% in assay [3] (Replication number 1); 114.527% and 102.005% in assay [3] (Replication number 2).
`Cc1nccc(COC(=O)N2C[C@@H]3[C@@H](CNC(=O)c4ccc5[nH]nnc5c4)[C@@H]3C2)n1` [BI 3017]: the “Cell Viability” value is 118.304% and 89.116% in assay [1] (Replication number 1); 133.367% and 124.133% in assay [1] (Replication number 2); 96.5552% and 87.3221% in assay [2] (Replication number 1); 97.9165% and 92.8571% in assay [2] (Replication number 2); 85.9577% and 77.5176% in assay [3] (Replication number 1); 101.815% and 101.392% in assay [3] (Replication number 2).
Take `O=C(CCCCCCNC(=O)c1cnc(N(c2ccccc2)c2ccccc2)nc1)NO` [RICOLINOSTAT]: the “Cell Viability” value in assay [1] (Replication number 2) was 236.119% and 135.984%; in assay [2] (Replication number 1) it was 136.698% and 150.49%; in assay [2] (Replication number 2) it was 122.116% and 112.232%; in assay [3] (Replication number 1), 107.943% and 108.966%; in assay [3] (Replication number 2), 120.178% and 118.056%.
For `COc1cccc2c1C(=O)c1c(O)c3c(c(O)c1C2=O)CC(O)(C(=O)CO)CC3OC1CC(N)C(O)C(C)O1.Cl` (stereo not drawn), the “Cell Viability” value was 17.7261% in assay [1] (Replication number 1); 21.2234% in assay [1] (Replication number 2); 24.67% and 46.8716% in assay [2] (Replication number 1); 19.9524% and 41.0435% in assay [2] (Replication number 2); 10.231% and 27.4494% in assay [3] (Replication number 1).
